Experimental findings from patent US20260365663A1, “EMOPAMIL-BINDING PROTEIN INHIBITORS AND USES THEREOF” (BIOGEN MA INC., priority 2022, published 2026) are described below.

Molecules are shown by their SMILES.

T1 sequence (Q15125 whole entry): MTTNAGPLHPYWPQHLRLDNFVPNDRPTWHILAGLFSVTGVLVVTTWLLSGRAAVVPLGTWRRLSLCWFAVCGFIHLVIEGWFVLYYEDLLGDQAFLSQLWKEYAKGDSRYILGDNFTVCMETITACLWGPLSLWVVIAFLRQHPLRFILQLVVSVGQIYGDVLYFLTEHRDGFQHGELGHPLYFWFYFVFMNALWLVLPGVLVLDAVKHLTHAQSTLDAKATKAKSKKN

The first test concerns the target T1, EBP (Homo sapiens, UniProt Q15125).
T1 construct: HEK293T cells were utilized as the source of EBP enzyme; endogenous in cells; host or cells: HEK293T
Put plainly: EBP Functional Assay (EBP immunoaffinity LC-MS assay). It is filed as biochemical.
Settings: not given
Here is the method:
The EBP immunoaffinity (IA) LC-MS assay measures the potency of small molecule inhibitors of EBP by quantifying their concentration-dependent changes in the enzyme's substrate and product using liquid chromatography atmospheric pressure chemical ionization multiple reaction monitoring mass spectrometry (LC-APCI MRM MS). HEK293T cells were utilized as the source of EBP enzyme. The enzyme was incubated with the small molecule inhibitors at variable concentrations for 30 min. Deuterated form of EBP substrate, zymosterol-d5 (Avanti Polar Lipids, Cat #700068P-1 mg), was then added and the plate was incubated at 37 °C for 4 h. Finally, the sterol isomers were extracted and injected to LC-APCI MRM MS. MRM transition used for the quantification for both zymosterol and dihydrolathosterol (substrate and product of EBP enzymatic reaction, respectively) is 372.3-203.2, CE 30 and DP 80 in positive ion mode. Percent conversion of the zymosterol-d5 to dehydrolathosterol-d5 was used to derive IC50 curves. Tasin-1 (1′-[(4-Methoxyphenyl)sulfonyl]-4-methyl-1,4′-bipiperidine, CAS 792927-06-1) was used as the reference small molecule inhibitor.
Percent conversion versus the compound concentration data were fit to the following 4-parameter logistic model to generate IC50 curves: […]
Regarding `COc1ccc(S(=O)(=O)N2CC3(CCC(N4CCOCC4)C3)C2)c(C)n1` (stereo not drawn) [Example 48, 4-(2-((6-methoxy-2-methylpyridin-3-yl)sulfonyl)-2-azaspiro[3.4]octan-6-yl)morpholine], the IC50 was less than 100 nM. For `Cc1nn(C)c(S(=O)(=O)N2CC3(CCC(N4CCOCC4)C3)C2)c1Cl` (stereo not drawn) [Example 37, 4-(2-((4-Chloro-1,3-dimethyl-1H-pyrazol-5-yl)sulfonyl)-2-azaspiro[3.4]octan-6-yl)morpholine], the IC50 lay within 100 to 500 nM. The compound `COc1ccc(S(=O)(=O)N2CC3(CCC(N4CCOCC4)C3)C2)c(C(F)(F)F)n1` (stereo not drawn) [Example 39, 4-(2-((6-Methoxy-2-(trifluoromethyl)pyridin-3-yl)sulfonyl)-2-azaspiro[3.4]octan-6-yl)morpholine] had an IC50 of less than 100 nM. For `Cc1cc(S(=O)(=O)N2CC3(CCC(N4CCOCC4)C3)C2)n(C)n1` (stereo not drawn) [Example 36, 4-(2-((1,3-Dimethyl-1H-pyrazol-5-yl)sulfonyl)-2-azaspiro[3.4]octan-6-yl)morpholine], the IC50 was 100 to 500 nM. As to `Cc1nc(C(F)(F)F)ccc1S(=O)(=O)N1CC2(CC(N3CC4(CCO4)C3)C2)C1` [Example 6, 6-(2-((2-Methyl-6-(trifluoromethyl)pyridin-3-yl)sulfonyl)-2-azaspiro[3.3]heptan-6-yl)-1-oxa-6-azaspiro[3.3]heptane], the IC50 lay in the range of 500 to 3000 nM. `Cc1nc(C(C)(F)F)ccc1S(=O)(=O)N1CC2(CC(N3CC4(CCO4)C3)C2)C1` [Example 68, 6-(2-((6-(1,1-difluoroethyl)-2-methylpyridin-3-yl)sulfonyl)-2-azaspiro[3.3]heptan-6-yl)-1-oxa-6-azaspiro[3.3]heptane] gave an IC50 of 500 to 3000 nM. On the same count and under the same terms, the same measure for `O=S(=O)(c1ccc(OC(F)F)cc1)N1CC2(CCC(N3CCOCC3)C2)C1` (stereo not drawn) [Example 44, 4-(2-((4-(Difluoromethoxy)phenyl)sulfonyl)-2-azaspiro[3.4]octan-6-yl)morpholine]: 500 to 3000 nM.

Still in this test, the particulars now being: HEK293T cells as source of EBP enzyme; zymosterol-d5 substrate; inhibitor 30 min, then 37 °C for 4 h; percent conversion to dehydrolathosterol-d5 by LC-APCI MRM MS; read-out: EBP Functional Assay.
Consider `Cc1nc(C(F)(F)F)ccc1S(=O)(=O)NC1CC2(C1)CN(C1CCOCC1)C2` [Example 18, 2-Methyl-N-(2-(tetrahydro-2H-pyran-4-yl)-2-azaspiro[3.3]heptan-6-yl)-6-(trifluoromethyl)pyridine-3-sulfonamide], for which the IC50 lay in the range of 500 to 3000 nM. On the same count and under the same terms, the same measure for `Cc1nc(C(F)(F)F)ccc1S(=O)(=O)N1CC2(CC(NC3CCOCC3)C2)C1` [Example 3, 2-((2-Methyl-6-(trifluoromethyl)pyridin-3-yl)sulfonyl)-N-(tetrahydro-2H-pyran-4-yl)-2-azaspiro[3.3]heptan-6-amine]: 100 to 500 nM; for `Cn1nc(C(F)(F)F)cc1S(=O)(=O)N1CC2(CCC(N3CCOCC3)C2)C1` (stereo not drawn) [Example 35, 4-(2-((1-Methyl-3-(trifluoromethyl)-1H-pyrazol-5-yl)sulfonyl)-2-azaspiro[3.4]octan-6-yl)morpholine]: 100 to 500 nM.

For the compound `Cc1nc(C(F)(F)F)ncc1S(=O)(=O)N1CC2(CC(NC3CCOCC3)C2)C1` [Example 76, 2-((4-methyl-2-(trifluoromethyl)pyrimidin-5-yl)sulfonyl)-N-(tetrahydro-2H-pyran-4-yl)-2-azaspiro[3.3]heptan-6-amine], the IC50 lay within 100 to 500 nM. For the compound `COc1ncc(C)cc1S(=O)(=O)N1CC2(CC(NC3CC(F)(F)C3)CO2)C1` (stereo not drawn) [Example 25, N-(3,3-Difluorocyclobutyl)-2-((2-methoxy-5-methylpyridin-3-yl)sulfonyl)-5-oxa-2-azaspiro[3.4]octan-7-amine], the IC50 lay within 500 to 3000 nM. Take `Cn1nc(C(F)(F)F)cc1S(=O)(=O)N1CC2(C[C@@H](N3CCOCC3)CO2)C1` [Example 57, (R)-2-((1-methyl-3-(trifluoromethyl)-1H-pyrazol-5-yl)sulfonyl)-7-morpholino-5-oxa-2-azaspiro[3.4]octane]: the IC50 fell in the range of 500 to 3000 nM. Take `Cn1nc(C(F)(F)F)cc1S(=O)(=O)N1CC2(CC[C@@H](N3CCOCC3)C2)C1` [Example 49, (R)-4-(2-((1-Methyl-3-(trifluoromethyl)-1H-pyrazol-5-yl)sulfonyl)-2-azaspiro[3.4]octan-6-yl)morpholine]: the IC50 was in the range of 100 to 500 nM. Turning to `Cc1nc(C(C)(F)F)ccc1S(=O)(=O)N1CC2(CC(NCC3CCOCC3)C2)C1` [Example 71, 2-((6-(1,1-difluoroethyl)-2-methylpyridin-3-yl)sulfonyl)-N-((tetrahydro-2H-pyran-4-yl)methyl)-2-azaspiro[3.3]heptan-6-amine], the IC50 is less than 100 nM. Same read-out and setting: the same measure for `Cc1nc(C(F)(F)F)ccc1S(=O)(=O)N1CC2(CC(NC3(C4CCOCC4)CC3)C2)C1` [Example 7, 2-((2-Methyl-6-(trifluoromethyl)pyridin-3-yl)sulfonyl)-N-(1-(tetrahydro-2H-pyran-4-yl)cyclopropyl)-2-azaspiro[3.3]heptan-6-amine]: 100 to 500 nM; for `Cn1nc(C(F)(F)F)cc1S(=O)(=O)N1CC2(CC(NCC3COC3)C2)C1` [Example 11, 2-((1-Methyl-3-(trifluoromethyl)-1H-pyrazol-5-yl)sulfonyl)-N-(oxetan-3-ylmethyl)-2-azaspiro[3.3]heptan-6-amine]: 100 to 500 nM. On to `Cc1nc(C(C)(F)F)ccc1S(=O)(=O)N1CC2(CC(NC3CC4(COC4)C3)C2)C1` (stereo not drawn) [Example 70, 2-((6-(1,1-difluoroethyl)-2-methylpyridin-3-yl)sulfonyl)-N-(2-oxaspiro[3.3]heptan-6-yl)-2-azaspiro[3.3]heptan-6-amine], for which the IC50 lay within 100 to 500 nM. With `Cc1cc(C)c(S(=O)(=O)N2CC3(CCC(N4CCOCC4)C3)C2)c(C)c1` (stereo not drawn) [Example 43, 4-(2-(Mesitylsulfonyl)-2-azaspiro[3.4]octan-6-yl)morpholine], the IC50 was less than 100 nM. Consider `Cc1nc(C(F)(F)F)ccc1S(=O)(=O)N1CC2(CC(NC3COC3)C2)C1` [Example 8, 2-((2-Methyl-6-(trifluoromethyl)pyridin-3-yl)sulfonyl)-N-(oxetan-3-yl)-2-azaspiro[3.3]heptan-6-amine], for which the IC50 was in the range of 500 to 3000 nM. Consider `Cc1nc(Cl)ccc1S(=O)(=O)N1CC2(CC[C@@H](N3CCOCC3)C2)C1` (single isomer, unassigned) [Example 64], for which the IC50 was less than 100 nM. For `Cc1nc(C(F)(F)F)ncc1S(=O)(=O)N1CC2(CC(N(C)C3CC4(COC4)C3)C2)C1` (stereo not drawn) [Example 82, N-methyl-2-((4-methyl-2-(trifluoromethyl)pyrimidin-5-yl)sulfonyl)-N-(2-oxaspiro[3.3]heptan-6-yl)-2-azaspiro[3.3]heptan-6-amine], the IC50 was less than 100 nM. Take `Cc1cc(C(F)(F)F)ncc1S(=O)(=O)N1CC2(CC[C@@H](N3CCOCC3)C2)C1` (single isomer, unassigned) [Example 62]: the IC50 is less than 100 nM.

In the case of `Cn1nc(C(F)(F)F)cc1S(=O)(=O)N1CC2(CC(NCC3(C)COC3)C2)C1` [Example 12, 2-((1-Methyl-3-(trifluoromethyl)-1H-pyrazol-5-yl)sulfonyl)-N-((3-methyloxetan-3-yl)methyl)-2-azaspiro[3.3]heptan-6-amine], the IC50 is less than 100 nM.

For `Cc1nc(C(F)(F)F)ncc1S(=O)(=O)N1CC2(CC(NC3COC3)C2)C1` [Example 77, 2-((4-methyl-2-(trifluoromethyl)pyrimidin-5-yl)sulfonyl)-N-(oxetan-3-yl)-2-azaspiro[3.3]heptan-6-amine], the IC50 was in the range of 500 to 3000 nM. For the compound `Cc1cc(S(=O)(=O)N2CC3(CC[C@H](N4CCOCC4)C3)C2)n(C)n1` (single isomer, unassigned) [Example 67], the IC50 was 500 to 3000 nM. In the case of `Cc1nc(C(F)(F)F)ccc1S(=O)(=O)N1CC2(CC[C@H](N3CCOCC3)C2)C1` (single isomer, unassigned) [Example 61], the IC50 is 100 to 500 nM.

Consider `N#Cc1cc(F)cc(S(=O)(=O)N2CC3(CC(N4CC5(COC5)C4)CO3)C2)c1` (stereo not drawn) [Example 28, 3-((7-(2-Oxa-6-azaspiro[3.3]heptan-6-yl)-5-oxa-2-azaspiro[3.4]octan-2-yl)sulfonyl)-5-fluorobenzonitrile], for which the IC50 fell in the range of 500 to 3000 nM. For the compound `Cc1cc(S(=O)(=O)N2CC3(CC[C@@H](N4CCOCC4)C3)C2)n(C)n1` (single isomer, unassigned) [Example 66], the IC50 was in the range of 100 to 500 nM. On the same count and under the same terms, the same measure for `Cc1nc(C(C)(F)F)ccc1S(=O)(=O)N1CC2(CC(N(C)C3COC3)C2)C1` [Example 73, 2-((6-(1,1-difluoroethyl)-2-methylpyridin-3-yl)sulfonyl)-N-methyl-N-(oxetan-3-yl)-2-azaspiro[3.3]heptan-6-amine]: 100 to 500 nM; for `Cn1nc(C(F)(F)F)cc1S(=O)(=O)N1CC2(CC(N3CCOCC3)C2)C1` [Example 10, 4-(2-((1-Methyl-3-(trifluoromethyl)-1H-pyrazol-5-yl)sulfonyl)-2-azaspiro[3.3]heptan-6-yl)morpholine]: 100 to 500 nM; for `COc1ncc(C)cc1S(=O)(=O)N1CC2(CC(N3CC(OC)C3)CO2)C1` (stereo not drawn) [Example 23, 2-((2-Methoxy-5-methylpyridin-3-yl)sulfonyl)-7-(3-methoxyazetidin-1-yl)-5-oxa-2-azaspiro[3.4]octane]: 500 to 3000 nM. Regarding `COCCN(C)C1CCC2(C1)CN(S(=O)(=O)c1cc(C(F)(F)F)nn1C)C2` (stereo not drawn) [Example 33, N-(2-Methoxyethyl)-N-methyl-2-((1-methyl-3-(trifluoromethyl)-1H-pyrazol-5-yl)sulfonyl)-2-azaspiro[3.4]octan-6-amine], the IC50 was in the range of 500 to 3000 nM.
